For data set [1], the target named is Metabotropic glutamate receptor 4 (Rattus norvegicus, UniProt P31423). As to the kind of experiment: Positive allosteric modulation of rat mGlu4 receptor expressed in HEK293 cells co- expressing GIRK channel by thallium mobilization assay. The format is cell-based.
The target in data set [2] is Metabotropic glutamate receptor 4 (Rattus norvegicus) (UniProt P31423). As to the kind of experiment: Positive allosteric modulation of rat mGlu4 receptor expressed in HEK293 cells co- expressing GIRK channel by thallium mobilization assay relative to control. Format: cell-based.
The nature of data set [3]: Kinetic solubility of compound. The format is physicochemical. The settings on record: read-out: Kinetic_solubility.
Data set [4] has as its system Rattus norvegicus. As to the kind of experiment: Reversal of haloperidol-induced catalepsy in Sprague-Dawley rat assessed as latency time for withdrawl at 3 mg/kg, ip and measured after 15 mins (reference value: 49.8 sec). The format is functional. As to conditions: 0.25 h.
Data set [5] is described as follows: Ratio of drug level in rat brain to plasma assessed as unbound permeability coefficient at 0.2 mg/kg, iv. Format: ADME, organism-based. As to conditions: read-out: K(p,uu,brain).
In data set [6] the test system is Rattus norvegicus. As to the kind of experiment: Reversal of haloperidol-induced catalepsy in Sprague-Dawley rat assessed as latency time for withdrawl at 30 mg/kg, ip and measured after 15 mins (reference value: 49.8 sec). Format: functional. The settings on record: 0.25 h.
Data set [7] has as its system Rattus norvegicus. As to the kind of experiment: Reversal of haloperidol-induced catalepsy in Sprague-Dawley rat assessed as reduction in catalepsy at 3 mg/kg, ip and measured after 15 mins relative to untreated control. The settings on record: 0.25 h. The format is functional.
In data set [8] the test system is Rattus norvegicus. As to the kind of experiment: Reversal of haloperidol-induced catalepsy in Sprague-Dawley rat administered intraperitoneally and measured after 15 mins. The format is functional, organism-based. As to conditions: dose 3-30 mg/kg.
The target in data set [9] is Metabotropic glutamate receptor 7 (Homo sapiens, UniProt Q14831). As to the kind of experiment: Binding affinity to mGlu7 (unknown origin).
Data set [10] deals with Metabotropic glutamate receptor 1 (Rattus norvegicus, UniProt P23385). The experiment in a line: Displacement of [3H]quisqualate from mGluR1 from rat brain incubated for 60 mins by radiometric scintillation counting analysis. The format is tissue-based.
The nature of data set [11]: Ratio of drug level in rat brain to plasma assessed as permeability coefficient at 0.2 mg/kg, iv. Format: ADME, organism-based.
For data set [12], the target named is Metabotropic glutamate receptor 2 (Homo sapiens, UniProt Q14416). As to the kind of experiment: Displacement of [3H]LY341495 from full length human recombinant mGluR2 expressed in Chem-1 cells incubated for 60 mins by radiometric scintillation counting analysis. The format is cell-based. Background: In a radioligand displacement assay an active substance lowers the binding of a labelled ligand.

The subject of data set [13] is Rattus norvegicus. As to the kind of experiment: Reversal of haloperidol-induced catalepsy in Sprague-Dawley rat assessed as reduction in catalepsy at 10 mg/kg, ip and measured after 15 mins relative to untreated control. Format: functional. The settings on record: 0.25 h.
The nature of data set [14]: Protein binding in rat brain assessed as unbound fraction. The format is ADME, tissue-based.
Data set [15] can be described thus: Protein binding in rat plasma assessed as unbound fraction. Format: ADME, cell-free.
Data set [16] deals with Rattus norvegicus. The experiment in a line: Reversal of haloperidol-induced catalepsy in Sprague-Dawley rat assessed as reduction in catalepsy at 30 mg/kg, ip and measured after 15 mins relative to untreated control. The format is functional. The settings on record: 0.25 h.
In data set [17] the target is Metabotropic glutamate receptor 5 (Homo sapiens, UniProt P41594). As to the kind of experiment: Binding affinity to mGlu5 (unknown origin).
The test system of data set [18] is Rattus norvegicus. The experiment in a line: Reversal of haloperidol-induced catalepsy in Sprague-Dawley rat assessed as latency time for withdrawl at 10 mg/kg, ip and measured after 15 mins (reference value: 49.8 sec). The settings on record: 0.25 h. Format: functional.
The target in data set [19] is Metabotropic glutamate receptor 3 (Homo sapiens, UniProt Q14832). The experiment in a line: Binding affinity to mGlu3 (unknown origin).
Data set [20] in a line: Protein binding in human plasma assessed as unbound fraction. The format is ADME, cell-free.
Data set [21] has as its system Rattus norvegicus. The experiment in a line: Reversal of haloperidol-induced catalepsy in ip dosed Sprague-Dawley rat assessed as latency time for withdrawl measured after 15 mins (reference value: 49.8 sec). The format is functional. The settings on record: 0.25 h.
Data set [22] deals with Rattus norvegicus. The experiment in a line: Reversal of haloperidol-induced catalepsy in ip dosed Sprague-Dawley rat assessed as reduction in catalepsy measured after 15 mins relative to untreated control. As to conditions: 0.25 h. Format: functional.
The mark [23] stands for this setting: filed as positive allosteric modulator.

As usually defined, the pEC50 is −log10 of the EC50, conventionally taken in molar units. Broadly, the inhibition in vivo is the change of the read-out against control, counted positive when it falls. For orientation: pIC50 means the IC50 on a negative log10 scale, so that one unit is a factor of ten. Broadly, the Kp is the ratio of the level in a tissue or fluid to that in plasma or blood. As a reminder, the fraction unbound is the share of the substance not bound to proteins or other matrix.

SMILES strings stand for the structures. pEC50, pIC50: −log10 of the molar value. In brackets after ≈: the same amount, converted by molar mass.

Metabotropic glutamate receptor 4 (Rattus norvegicus), sequence (P31423 whole entry): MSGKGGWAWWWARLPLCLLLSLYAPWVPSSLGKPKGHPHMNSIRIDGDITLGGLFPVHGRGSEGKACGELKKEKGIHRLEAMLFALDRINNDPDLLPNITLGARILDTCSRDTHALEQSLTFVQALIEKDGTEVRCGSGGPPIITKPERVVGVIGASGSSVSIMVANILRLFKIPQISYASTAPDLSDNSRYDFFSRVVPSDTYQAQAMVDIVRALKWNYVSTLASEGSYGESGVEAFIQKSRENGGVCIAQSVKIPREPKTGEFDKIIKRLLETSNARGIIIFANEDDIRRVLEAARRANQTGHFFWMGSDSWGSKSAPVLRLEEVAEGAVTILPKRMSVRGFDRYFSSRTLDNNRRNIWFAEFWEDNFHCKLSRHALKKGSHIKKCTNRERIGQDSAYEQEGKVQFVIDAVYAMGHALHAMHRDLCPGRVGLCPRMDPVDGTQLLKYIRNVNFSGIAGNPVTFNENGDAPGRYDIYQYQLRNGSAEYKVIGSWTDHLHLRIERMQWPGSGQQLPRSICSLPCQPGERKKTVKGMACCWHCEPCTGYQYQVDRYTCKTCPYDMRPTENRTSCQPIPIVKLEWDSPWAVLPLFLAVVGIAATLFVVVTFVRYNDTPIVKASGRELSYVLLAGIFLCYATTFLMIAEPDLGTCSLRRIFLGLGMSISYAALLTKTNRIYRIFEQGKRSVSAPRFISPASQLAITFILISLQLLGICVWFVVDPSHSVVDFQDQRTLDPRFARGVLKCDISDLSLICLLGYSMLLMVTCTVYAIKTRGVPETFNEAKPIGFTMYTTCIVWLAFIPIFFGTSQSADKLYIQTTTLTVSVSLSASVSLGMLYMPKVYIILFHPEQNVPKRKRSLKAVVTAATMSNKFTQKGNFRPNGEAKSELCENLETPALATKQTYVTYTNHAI
Metabotropic glutamate receptor 4, sequence (P31423 whole entry): as above
Metabotropic glutamate receptor 7, sequence (Q14831 whole entry): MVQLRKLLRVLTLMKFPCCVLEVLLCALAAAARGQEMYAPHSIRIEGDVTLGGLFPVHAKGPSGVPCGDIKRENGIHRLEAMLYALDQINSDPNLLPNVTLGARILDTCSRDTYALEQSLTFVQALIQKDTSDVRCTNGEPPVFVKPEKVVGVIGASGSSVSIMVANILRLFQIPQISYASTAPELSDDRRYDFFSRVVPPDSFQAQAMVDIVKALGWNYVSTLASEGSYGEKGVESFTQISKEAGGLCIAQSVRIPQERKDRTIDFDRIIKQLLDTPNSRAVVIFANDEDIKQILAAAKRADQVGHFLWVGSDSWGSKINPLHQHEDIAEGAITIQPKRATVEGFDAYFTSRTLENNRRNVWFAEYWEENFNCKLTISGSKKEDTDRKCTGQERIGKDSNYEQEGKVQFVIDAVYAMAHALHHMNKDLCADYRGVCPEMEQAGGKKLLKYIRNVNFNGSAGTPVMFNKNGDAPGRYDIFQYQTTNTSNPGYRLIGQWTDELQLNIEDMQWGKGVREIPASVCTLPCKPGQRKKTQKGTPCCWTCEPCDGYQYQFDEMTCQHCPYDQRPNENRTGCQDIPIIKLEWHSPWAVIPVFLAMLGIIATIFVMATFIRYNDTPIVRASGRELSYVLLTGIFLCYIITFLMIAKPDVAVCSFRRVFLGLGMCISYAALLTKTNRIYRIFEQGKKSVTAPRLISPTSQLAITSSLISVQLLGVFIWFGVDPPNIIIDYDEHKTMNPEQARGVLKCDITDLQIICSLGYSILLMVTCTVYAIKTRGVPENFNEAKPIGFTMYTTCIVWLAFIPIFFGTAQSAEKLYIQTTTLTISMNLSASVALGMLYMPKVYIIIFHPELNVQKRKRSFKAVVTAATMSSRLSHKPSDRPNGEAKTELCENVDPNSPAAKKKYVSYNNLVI
Metabotropic glutamate receptor 5, sequence (P41594 whole entry): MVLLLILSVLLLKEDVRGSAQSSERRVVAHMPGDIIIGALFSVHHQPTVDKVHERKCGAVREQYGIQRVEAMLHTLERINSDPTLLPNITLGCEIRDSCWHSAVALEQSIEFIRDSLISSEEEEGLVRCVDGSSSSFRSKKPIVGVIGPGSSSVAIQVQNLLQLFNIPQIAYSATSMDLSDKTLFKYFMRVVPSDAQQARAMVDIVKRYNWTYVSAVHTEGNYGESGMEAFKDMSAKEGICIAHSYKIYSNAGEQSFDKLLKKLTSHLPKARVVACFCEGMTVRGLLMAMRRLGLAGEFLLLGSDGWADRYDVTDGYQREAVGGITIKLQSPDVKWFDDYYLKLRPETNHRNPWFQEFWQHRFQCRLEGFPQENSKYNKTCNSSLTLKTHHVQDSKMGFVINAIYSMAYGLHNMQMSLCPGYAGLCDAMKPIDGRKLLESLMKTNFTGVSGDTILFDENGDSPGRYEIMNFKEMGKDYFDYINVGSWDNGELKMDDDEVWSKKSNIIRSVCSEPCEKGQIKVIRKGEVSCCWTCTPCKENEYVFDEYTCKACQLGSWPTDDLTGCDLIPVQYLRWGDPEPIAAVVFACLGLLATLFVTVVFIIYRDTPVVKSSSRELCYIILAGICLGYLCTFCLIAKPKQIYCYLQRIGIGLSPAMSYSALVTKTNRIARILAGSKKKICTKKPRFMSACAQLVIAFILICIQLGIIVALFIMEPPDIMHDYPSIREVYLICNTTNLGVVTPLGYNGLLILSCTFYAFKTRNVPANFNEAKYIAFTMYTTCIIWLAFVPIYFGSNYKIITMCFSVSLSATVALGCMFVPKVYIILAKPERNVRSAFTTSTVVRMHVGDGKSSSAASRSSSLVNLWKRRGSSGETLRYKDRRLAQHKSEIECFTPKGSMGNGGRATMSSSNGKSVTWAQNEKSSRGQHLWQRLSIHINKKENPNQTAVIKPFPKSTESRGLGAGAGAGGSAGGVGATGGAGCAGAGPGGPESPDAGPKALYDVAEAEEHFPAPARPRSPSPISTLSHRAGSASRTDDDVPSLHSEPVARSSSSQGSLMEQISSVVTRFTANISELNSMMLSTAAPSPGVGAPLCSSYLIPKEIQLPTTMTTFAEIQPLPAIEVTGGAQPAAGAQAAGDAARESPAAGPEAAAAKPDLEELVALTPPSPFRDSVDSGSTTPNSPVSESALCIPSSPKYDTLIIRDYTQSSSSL
Metabotropic glutamate receptor 2, sequence (Q14416 whole entry): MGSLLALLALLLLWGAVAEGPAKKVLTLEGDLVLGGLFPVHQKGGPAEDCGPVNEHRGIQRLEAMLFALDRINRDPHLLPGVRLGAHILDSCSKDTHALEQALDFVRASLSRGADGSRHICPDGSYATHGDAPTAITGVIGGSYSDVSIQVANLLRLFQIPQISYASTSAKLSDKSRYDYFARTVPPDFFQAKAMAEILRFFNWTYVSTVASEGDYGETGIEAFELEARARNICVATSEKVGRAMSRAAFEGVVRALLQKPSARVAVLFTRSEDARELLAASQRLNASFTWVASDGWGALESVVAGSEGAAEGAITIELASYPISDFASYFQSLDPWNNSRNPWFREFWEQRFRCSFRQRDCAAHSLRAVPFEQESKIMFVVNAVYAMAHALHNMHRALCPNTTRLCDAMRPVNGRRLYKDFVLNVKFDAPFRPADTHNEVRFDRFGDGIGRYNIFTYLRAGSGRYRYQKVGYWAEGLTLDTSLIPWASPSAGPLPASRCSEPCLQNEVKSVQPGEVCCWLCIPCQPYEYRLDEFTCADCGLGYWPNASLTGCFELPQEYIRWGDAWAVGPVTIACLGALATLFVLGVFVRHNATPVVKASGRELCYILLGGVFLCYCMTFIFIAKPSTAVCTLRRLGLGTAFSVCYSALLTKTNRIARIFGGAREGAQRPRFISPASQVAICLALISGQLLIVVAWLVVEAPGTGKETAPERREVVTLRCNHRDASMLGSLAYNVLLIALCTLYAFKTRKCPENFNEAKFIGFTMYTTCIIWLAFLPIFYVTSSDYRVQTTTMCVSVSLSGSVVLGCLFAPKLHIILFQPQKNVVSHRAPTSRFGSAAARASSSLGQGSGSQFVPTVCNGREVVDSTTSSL
Metabotropic glutamate receptor 3, sequence (Q14832 whole entry): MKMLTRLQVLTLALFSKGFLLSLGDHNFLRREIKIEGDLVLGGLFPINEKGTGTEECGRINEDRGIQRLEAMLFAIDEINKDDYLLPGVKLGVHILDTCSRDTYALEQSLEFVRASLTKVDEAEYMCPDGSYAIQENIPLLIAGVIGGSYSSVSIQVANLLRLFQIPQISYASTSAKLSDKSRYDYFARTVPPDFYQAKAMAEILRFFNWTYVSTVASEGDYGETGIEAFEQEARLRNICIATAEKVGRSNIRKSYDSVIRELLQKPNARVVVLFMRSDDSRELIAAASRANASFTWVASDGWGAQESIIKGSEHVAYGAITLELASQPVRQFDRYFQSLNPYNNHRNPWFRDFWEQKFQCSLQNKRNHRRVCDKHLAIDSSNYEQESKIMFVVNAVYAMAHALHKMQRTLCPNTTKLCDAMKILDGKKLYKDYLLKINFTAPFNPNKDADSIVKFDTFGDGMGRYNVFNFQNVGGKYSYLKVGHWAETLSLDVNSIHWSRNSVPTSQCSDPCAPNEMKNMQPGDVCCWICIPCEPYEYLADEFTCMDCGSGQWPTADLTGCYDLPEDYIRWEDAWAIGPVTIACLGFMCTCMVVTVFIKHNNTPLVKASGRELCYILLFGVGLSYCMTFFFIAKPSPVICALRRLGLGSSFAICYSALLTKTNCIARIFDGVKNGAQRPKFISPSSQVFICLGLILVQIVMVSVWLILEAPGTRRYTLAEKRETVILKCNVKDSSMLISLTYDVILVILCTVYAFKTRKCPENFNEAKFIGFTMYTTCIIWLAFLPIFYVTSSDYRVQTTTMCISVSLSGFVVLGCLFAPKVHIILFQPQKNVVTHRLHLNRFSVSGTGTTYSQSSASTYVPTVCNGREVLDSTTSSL

Compound `O=C1CCSC[C@H](C(=O)Nc2cc(Br)cc(Br)c2)N1` gave a pEC50 in [1] of 7.12. The same compound gave a %max in data set [2] (setting [23]) of 104%.
`O=C1CCSC[C@@H](C(=O)Nc2cc(F)cc(Br)c2)N1`: the pEC50 in data set [1] was 6.45. In data set [2] (setting [23]), this compound had a %max of 101%.
Take `O=C(NC1CC(F)(F)C1)c1nsc2cc(Nc3n[nH]c4cccnc34)ccc12`: the solubility kinetic in data set [3] amounted to 0.9 µM (≈ 0.36 µg/mL).
Compound `O=C1CCSC[C@@H](C(=O)Nc2cccc(Br)c2)N1` gave a pEC50 in data set [1] of 5.21. This compound displayed a %max in data set [2] (setting [23]) of 98%.
As to `O=C1CCSC[C@H](C(=O)Nc2cccc(Br)c2)N1`, in data set [1], the pEC50 was under 4.52.
On to `O=C1CCSC[C@@H](C(=O)Nc2cc(Cl)cc(Br)c2)N1`, for which the Time in the data set on Rattus norvegicus [4] amounted to 36.6 s; in the data set on Rattus norvegicus [6] it was 22.2 s; with Rattus norvegicus [18] it was 28.6 s. Moreover, in [5], the Kp uu was 0.7. In data set [1], the pEC50 is 7.48. Besides, the %max in data set [2] (setting [23]) was 108%. Also, in the data set on Rattus norvegicus [7], the inhibition in vivo at 3 mg/kg came out at 26.5%. Also, in the data set with Rattus norvegicus [8], the Activity entry was “Dose-dependent effect”. Moreover, the pIC50 in data set [9], in data set [10], in data set [12], in data set [17] and in [19] was under 5.00 in each case. Besides, the solubility kinetic in data set [3] amounted to 6.2 µM (≈ 2.25 µg/mL). The Kp in data set [11] was 0.45. The inhibition in vivo at 10 mg/kg in the data set with Rattus norvegicus [13] came out at 42.6%. The fraction unbound in data set [14] is 0.028; in data set [15], 0.018; in data set [20] it was 0.011. The inhibition in vivo at 30 mg/kg in the data set on Rattus norvegicus [16] came out at 55.4%.
For `O=C1CCSC[C@@H](C(=O)Nc2cc(Br)cc(Br)c2)N1`, the Kp uu in data set [5] was found to be 0.1. The same compound gave a pEC50 in data set [1] of 7.46. The %max in [2] (setting [23]) is 97%. For the same compound, in data set [11], the Kp came out at 0.19. In addition, the results for the fraction unbound in data set [14], in data set [15] and in [20] were 0.006, 0.011 and 0.007, respectively.
As for `O=C1CCSC[C@@H](C(=O)Nc2cc(F)cc(F)c2)N1`, the pEC50 in data set [1] is 5.05. The compound further came in with a %max in data set [2] (setting [23]) of 102%.
In the case of `O=C1CCSC[C@H](C(=O)Nc2cc(Cl)cc(Br)c2)N1`, the pEC50 in data set [1] is 7.19. In addition, the %max in data set [2] (setting [23]) was found to be 98%.
Turning to `O=C1CCSC[C@@H](C(=O)Nc2cc(F)cc(I)c2)N1`, the pEC50 in data set [1] is 6.25. The compound further gave a %max in data set [2] (setting [23]) of 102%.
The compound `Cc1cc(C)cc(NC(=O)[C@@H]2CSCCC(=O)N2)c1` showed a pEC50 in data set [1] of under 5.00. In data set [2], this compound gave a %max of under 30%.
In turn, `O=C1CCSC[C@@H](C(=O)Nc2cc(Cl)cc(Cl)c2)N1` showed a pEC50 in data set [1] of 6.56. In data set [2] (setting [23]), this compound came in with a %max of 88%.
For the compound `Cc1cc(Cl)cc(NC(=O)[C@@H]2CSCCC(=O)N2)c1`, the negative-log EC50 (pEC50) in data set [1] was 5.96. Moreover, in [2] (setting [23]), the %max was 87%.
`O=C1CCSC[C@@H](C(=O)Nc2cc(F)cc(Cl)c2)N1` gave a pEC50 in [1] of 6.56. For the same compound, the %max in [2] (setting [23]) is 112%.
For the compound `Fc1ccc(Nc2n[nH]c3cccnc23)cc1Cl`, the Time with Rattus norvegicus [21] came to 17.9 s. Besides, in the data set on Rattus norvegicus [22], the “inhibition (INH)” value is given as 64%.
For the compound `O=C1CCSC[C@@H](C(=O)Nc2cc(C(F)(F)F)cc(C(F)(F)F)c2)N1`, the negative-log EC50 (pEC50) in data set [1] is 6.02. The compound further came in with a %max in data set [2] (setting [23]) of 102%.
For `O=C1CCSC[C@@H](C(=O)Nc2cc(Br)cc(I)c2)N1`, in that order: 6.94 and 101%.
Consider `O=C1CCSC[C@@H](C(=O)Nc2cccc(Cl)c2)N1`, for which the pEC50 in data set [1] is 6.83. The compound further returned a %max in [2] (setting [23]) of 120%. Further, the fraction unbound in data set [14] stood at 0.01; in data set [15], 0.02; in data set [20], 0.03.

The record behind these values is ChEMBL document CHEMBL4732192, “Discovery and optimization of a novel CNS penetrant series of mGlu PAMs based on a 1,4-thiazepane core with in vivo efficacy in a preclinical Parkinsonian model” (Bioorg Med Chem Lett, 2021).
